Consider 2 compounds from US20140303109A1 (priority 2010, published 2014).

Structures are written as SMILES.

For series [1], the system named is 5-FU+Ox-resistant cancer cells. As to conditions: alone or with 5-FU+Ox or FOLFOX; cited from earlier work.
Series [2] deals with BxPC-3 pancreatic cancer cells. Kind of series: MTT assay, BxPC-3 cell growth, 72 h. Format: cell-based, human. Conditions: various concentrations. On the procedure:
The concentrations were 10 μM, 20 μM, and 30 μM. After aspiration of growth medium, (3-(4,5-Dimethylthiazol-2-yl)-2,5-diphenyltetrazolium bromide (MTT; 1 mg/ml) was added to the cell cultures, followed by incubation for 3 hours at 37° C. After the cells were crystallized, the MTT was removed and dimethylsulfoxide (DMSO) was added to dissolve the metabolized MTT product. The absorbance was then measured on a Wallac Victor^3 1420 Multi-label counter at 540 nm.
The results are shown on FIG. 5 which is a series of four bar graphs, labeled FIG. 5A through FIG. 5D.
Background: Formazan colour is commonly taken as a measure of viable cells.

A further series deals with miR-21. Briefly: Real-time RT-PCR of miR-21 in PC cell lines. The format is cell-based, human. Conditions: 72 h; BxPC-3, MIAPaCa-E, MIAPaCa-M. As to the method:
The expression of miRNAs (miRNA-200a, miR-200b, and miR-21) in all three pancreatic cancer cell lines, was measured with a TaqMan MicroRNA Assay kit (Applied Biosystems, Carlsbad, Calif.) following the manufacturer's protocol. […] Total RNA was extracted, and 5 ng of each sample were reverse-transcribed in a method described by Li, et al., Cancer Res., Vol. 69, pages 6704-6712 (2009). Real-time RT-PCR reactions were then carried out in a total volume of 25 μl reaction mixture, as described by Li, et al., id., using Smart Cycler II (Cepheid, Sunnyvale, Calif.). The data were analyzed using Ct method and were normalized by RNU6B expression in each sample.
(In general: Quantitative PCR measures a nucleic acid by following its amplification.)

In series [3] the test system is pancreatospheres of AsPC-1, AsPC1-GTR, MIAPaCa-2, and MIAPaCa-2-GTR cells. Briefly: Sphere disintegration assay. Format: cell-based, human. As to conditions: 5 days treatment of 10-day spheres. An excerpt: After allowing 10 days to generate the formation of pancreatospheres, the cells were subjected to the treating agent for 5 days.
The test system of series [4] is NF-κB DNA binding activity. Briefly: EMSA for NF-κB DNA binding activity in tumor tissue. The format is in vivo, mice. Conditions: MIA PaCa-2 tumors. As to the method:
Nuclear extracts were prepared from tumor tissue induced by the MIA PaCa-2 cells using an homogenizer with 400 μl of ice cold lysis buffer extracted as described earlier. EMSA was performed using the Odyssey Infrared Imaging System with NF-κβ 1RDye labeled oligonucleotide from LI-COR, Inc. (Lincoln, Nebr.). An NF-Kβ competition control study was conducted using unlabeled NF-Kβ consensus oligonucleotide. The samples were loaded and run at 30 mA for 1 hour. The gel was scanned using Odyssey Infrared Imaging System (LI-COR, Inc.).
Background: A gel shift assay detects complexes by their altered migration in electrophoresis.

The test system of series [5] is pancreatosphere-derived tumor cells. Briefly: Pancreatosphere formation by pancreatosphere-derived tumor cells. Format: cell-based. Conditions: cells harvested from pancreatosphere-derived tumors. The text has this:
Pancreatospheres (5,000) derived from MIAPaCa-2 cells were isolated and implanted in mice with 1:1 matrigel. […] RNA was extracted from the tumor tissue and assayed.
The animal was euthanized after 30 days because of tumor burden and photographed.

Another series has as its system BxPC-3 cells. Kind of series: MTT cell viability, BxPC-3 (gemcitabine-sensitive). As to conditions: 0.1-4.0 μMol/L. The format is cell-based, human. As to the method: Cell growth was assessed by an MTT assay in a manner similar to that as described above. The color intensity was measured by a TECAN microplate fluorometer (Tecan Group, LTD, Research Triangle Park, N.C.) at 595 nm.

In series [6] the test system is AsPC-1, AsPC1-GTR, MIAPaCa-2, and MIAPaCa-2-GTR cell lines. Kind of series: MTT cell survival and combination index, four PC lines. Conditions: 72 h, 4 μMol/L. The format is cell-based, human. The text has this: Untreated control has been assigned a value of 100%. The p value shown represents comparisons between a single agent t and their combinations by using a paired t-test. A combination Index (CI)<1 for the CDF and GEM combination indicates synergism. The results are shown on FIGS. 17A to 17D.

In another series the test system is COX-2, PTEN expression. Briefly: Western blot of COX-2 and PTEN in tumor remnants. Format: in vivo, mice. As to conditions: MIAPaCa-2 tumors. As to the method:
COX-2, PTEN, and β-actin expression was determined by Western blot.

The conditions of series [7]: oral 1 g/kg body wt., mouse; cited from earlier work.
In series [8] the test system is NF-κB DNA binding activity. Kind of series: EMSA for NF-κB DNA binding activity, MIA PaCa-2. Format: cell-based, human. Conditions: CUR 4 μM, CDF 2 μM.

With `COc1cc(/C=C/C(=O)C(=Cc2ccc(F)c(F)c2)C(=O)/C=C/c2ccc(O)c(OC)c2)ccc1O` [CDF, (1E,6E)-1,7-bis(4-hydroxy-3-methoxyphenyl)hepta-1,6-diene{4(3,4 difluorobenzaldehyde)}-3,5-dione], the “reducing and/or reversing chemoresistant colon cancer cells” value in series [1] is “superior to naturally-occurring CUR”. Moreover, in series [2], the cell growth inhibition entry is reported as “superior to CUR in inducing cell growth inhibition”. In addition, the “expression of miR-21” value in the series on miR-21 is given as “significant reduction in the expression of miR-21”. In [3], the disintegration of pancreatospheres entry was “remarkably increased disintegration of pancreatospheres”. In addition, in series [4], the “NF-κβ activation in tumor tissue” value is “down-regulated NF-κβ activation”. For the same compound, the “formation of new pancreatospheres” value in series [5] is “significant inhibition in the formation of new pancreatospheres”. In addition, the cell viability entry in the series with BxPC-3 cells is given as “significant reduction in cell viability”. Further, the cell survival entry in series [6] is listed as “much more significant reduction of cell survival in PC cells than GEM, CUR, or their combination”. Moreover, in the series on COX-2, PTEN expression, the “expression of PTEN in tumor remnants” value is given as “up-regulated”.
`COc1cc(/C=C/C(=O)CC(=O)/C=C/c2ccc(O)c(OC)c2)ccc1O` [CUR, (1E,6E)-1,7-bis(4-hydroxy-3-methoxyphenyl)hepta-1,6-diene-3,5-dione, reference compound]: the Cmax in [7] was 220 ng/mL. The “NF-κB DNA binding activity” value in [8] is listed as “down-regulation of NF-κB”.

Broadly, the Cmax is the highest concentration seen after dosing.
